“And” between values parts separate entries of the source, which are not always exact repeats. Equal entries are not always repeated.
Legend:
[1] = test system: patients with acute ischemic stroke; assay: Phase II clinical test: change ratio of cerebral infarction lesion (MRI, day 4 vs baseline); format: in vivo, human
Protocol: (§1) A multi-organ, randomly allocated, double-blind, placebo-controlled, and initial phase II clinical test was conducted on patients with acute ischemic stroke to explore and evaluate the efficacy and safety of the study drug, respectively. This clinical test includes a total of three cohorts, and test subject registration starts from Cohort 1, and when the safety is secured, Cohort 2 is sequentially registered. The registration of Cohort 2 proceeds when the safety is secured after evaluation by the Data Safety Monitoring Board (DSMB) at the time point when all the test subjects of Cohort 1 completed Visit 5 (Day 29). Cohorts 1 and 2 are for confirming the safety and efficacy of the test drug, and based on this, the dose and dosage regimen, and the like of Cohort 3 are determined.
(§2) This clinical test is conducted on patients with modified thrombolysis in cerebral infarction (mTICI) 2b or 3 grade reperfusion in angiography after endovascular recanalization therapy (ERT) among patients with severe ischemic stroke in moderate cases confirmed to have undergone acute cerebral artery occlusion of the anterior circulation system. Intravenous tissue plasminogen activator (IV tPA) intravenous administration is permitted when the stroke is indicated before ERT. Furthermore, when angiography is performed for ERT after intravenous tPA administration, patients who have already undergone mTICI 2b-3 reperfusion by a venous tPA effect alone before ERT also become a subject of the clinical test.
(§3) The following Cohorts 1 to 3 are administered using an infusion pump after mixing a test drug or control drug with an infusion solution.
(§4) Cohort 1. Low-Dose Administration Group • Test drug group: administration of the test drug is started within 30 minutes after reperfusion is confirmed within 6 hours after the onset of the symptom. Immediately after intravenous administration (bolus) of 150 mg of the test drug for 15 minutes, 750 mg of the test drug is intravenously IV infused for 23 hours and 45 minutes (f2 hours). Administration of the test drug should be started within 6.5 hours after the onset of the symptom. • Control drug group: a placebo is administered in the same manner as in the test drug group.
Diffusion weighted imaging (DWI) and gradient-recalled echo (GRE) or susceptibility weighted imaging (SWI), and magnetic resonance imaging (MRI) examination are performed within 90 minutes after reperfusion while administering a medicine for a clinical test, and this is utilized as a baseline result. A change ratio of cerebral infarction lesion at a time point of day 4 compared to the baseline was measured.
For comparison between a test group and the placebo, a two sample t-test is used after log conversion of an evaluation variable (infarct growth ratio). Additionally, a comparison between the test group and the placebo is made using a Wilcoxon rank sum test for a source data log which is not log-converted.
When factors that may affect prognosis should be corrected, analysis of covariance (ANCOVA) is used after log conversion of the evaluation variables (infarct growth ratio).
In patients who were administered a control drug or a test drug, the change ratio of cerebral infarction lesions among patients with similar baselines of cerebral infarction lesions was confirmed (Table 3).

[2] = Population pharmacokinetics model (NONMEM) built on single dose phase 1 data; set-up: species or system human
Protocol: A pharmacokinetics model for administration of a test drug was established for integration with a quantitative pharmacokinetics model for simulating the efficacy and safety of test drugs, as well as simulating the pharmacokinetics of future doses and dosage regimens. The simulation was performed by constructing a pharmacokinetics model based on pharmacokinetics information and demographic information of a total of 30 test subjects who were administered 35 mg, 75 mg, 150 mg, 300 mg, and 600 mg among the test subjects who participated in the single dose clinical test of test drug phase 1. The analysis was performed by a non-linear mixed effect modeling method using NONMEM® (version 7.2; ICON Development Solutions, Ellicott City, Md., USA).
The population pharmacokinetics model was constructed in the order of structural model construction, covariate analysis, and model selection. As a first step, a basic structural model was constructed, and as a step of establishing a model capable of best explaining the change in drug concentration over time, the most pharmacologically and statistically suitable model was selected by performing a search in the order of a 1-compartment model, a 2-compartment model, and a 3-compartment model. As the next step, covariate analysis was performed, and the effects of age, height, body weight, serum creatine, BUN, albumin, AST, and ALT concentrations which are part of the demographic information on pharmacokinetics were quantitatively evaluated. Finally, model selection (internal validation) was performed, a simulation of the established model was performed, and this was evaluated by a visual predictive check (VPC), which is a schematic evaluation method.
The pattern of time-blood concentration changes of the test drug is best explained by a 3-compartment model with 1st order elimination. No significant covariate was found in the covariate analysis utilizing age, height, body weight, serum creatine, BUN, albumin, AST, and ALT concentrations.

[3] = test system: healthy male volunteers; assay: Phase 1 clinical test, multi dose escalation: adverse reactions; format: in vivo, human
Protocol: In order to evaluate the safety at the time of a repeated dose of a test drug, a phased clinical test was conducted as determined by the Data Safety Monitoring Board (DSMB) on 24 subjects (8 subjects per cohort: 6 subjects in test group and 2 subjects in placebo group) in 3 dose groups (repeated administration of 150 mg, 300 mg, and 450 mg seven times at intervals of 12 hours) selected from healthy male volunteers in Korea.
A test drug or placebo was mixed with an infusion solution by intravenous injection therapy, and then administered using an infusion pump for 60 minutes (±10 minutes), and the same was repeatedly administered seven times at intervals of 12 hours.
Of the 24 test subjects who were administered the clinical test drug, a total of 7 test subjects developed 12 adverse reactions, and among them, 10 cases were confirmed to be adverse drug reactions. One case (one person) of an adverse reaction occurred in the placebo-administered group. […] Accordingly, it was determined that the tolerability of about 150 to 450 mg of the test drug during the repeated administration at intervals of 12 hours was good.

[4] = test system: healthy male volunteers; assay: Phase 1 clinical test, single dose escalation: adverse reactions; format: in vivo, human
Protocol: In order to evaluate the safety at the time of a single dose of a test drug, a phased clinical test was conducted as determined by the Data Safety Monitoring Board (DSMB) on 40 subjects (8 subjects per cohort: 6 subjects in test group and 2 subjects in placebo group) in 5 dose groups (35 mg, 75 mg, 150 mg, 300 mg, 600 mg) selected from healthy male volunteers in Korea.
A test drug or placebo was mixed with an infusion solution by intravenous injection therapy, and then administered using an infusion pump for 30 minutes (±5 minutes).
Of the 40 test subjects who were administered the clinical test drug, a total of 6 test subjects developed 7 adverse reactions. There were no reported adverse reactions in the placebo-administered group. Of the 7 adverse reactions, 1 case of “dizziness” was a moderate symptom in the test subjects who were administered 600 mg, and all other adverse reactions corresponded to a mild symptom. The subjects were spontaneously recovered from all the adverse reactions without any sequelae. […] Accordingly, it was determined that the drug tolerability of a single dose of the test drug was good in the test dose range.

[5] = test system: patients with acute ischemic stroke; assay: Phase II clinical test: Korean version of modified Rankin Scale (K-mRS) at day 90; format: in vivo, human
Protocol: as §1, §2, §3, §4
as §4, with “2. High-Dose” for “1. Low-Dose”, “300” for “150”, “30” for “15”, “1500” for “750”, “30” for “45”, “(±2” for “(f2”
The most widely used method for evaluating disability or dependence in daily life for people who have suffered from stroke or other neurological disorders is the Korean version of a modified Rankin Scale (K-mRS). The K-mRS is a global functional outcome scale which evaluates disability due to stroke and is the most universally used scale in stroke clinical tests. The K-mRS distribution shift analysis is a method of comparing the overall prognosis of the test group and the control group, and is the most recommended analysis method in clinical tests for acute stroke treatment methods including neuroprotective agents. The K-mRS is a scale of evaluating the patient's global functionality according to the independence of daily life and the degree to which the patient needs others' help, and is divided into 0 to 6 phases (0: normal, 5: severe disability, and 6: death). At the time points of days 29 and 90, a proportion of the K-mRS score evaluated by the evaluator is presented, and the pre-mRS evaluated at the time of screening is used as basic disease information. […]

[6] = test system: tMCAO animal model; settings: Molecular Neurobiology 55(9859), January 2018; cited from earlier work
[7] = Cohort 1, day 4 compared to baseline, individual patients 2, 4, 6, 8, dihydrochloride
[8] = 3-compartment model, structural model
[9] = interindividual variability, predicted value
[10] = repeated dose 150-450 mg, seven times at 12 h intervals
[11] = Cohort 1 (150 mg bolus + 750 mg infusion), n = 9
[12] = Cohort 2 (300 mg bolus + 1500 mg infusion), n = 6

## CCOc1cc(CN2CCOCC2)cc2[nH]c(=O)c3c(c12)NCCC3.Cl.Cl [Test drug, 10-ethoxy-8-(morpholinomethyl)-1,2,3,4-tetrahydrobenzo[h][1,6]naphthyridin-5(6H)-one dihydrochloride]
[1]; Cohort 1 (150 mg bolus + 750 mg infusion), individual patients 2, 4, 6, 8, MRI within 90 minutes after reperfusion, dihydrochloride
  Cerebral infarction lesion, Baseline: 1.59 cc and 10.1 cc and 32 cc and 126.66 cc
[1]; Cohort 1 (150 mg bolus + 750 mg infusion), individual patients 2, 4, 6, 8, dihydrochloride
  Cerebral infarction lesion, Time point of day 4: 2.67 cc and 10.94 cc and 45.33 cc and 127.61 cc
[1]; [7]
  Change ratio of cerebral infarction lesion: 1.68 and 1.08 and 1.42 and 1.01
  Rate of increase in cerebral infarction lesion: 67.9% and 8.3% and 41.7% and 0.8%
[1]; patients with similar baselines, Table 3
  rate of increase in cerebral infarction lesions compared to control drug group: significantly low rate of increase in cerebral infarction lesions
[2]; [8]
  1st Clearance of peripheral compartment (Q1), predicted value: 162 L/h
  1st Volume of peripheral compartment (V2), predicted value: 58.5 L
  2nd Clearance of peripheral compartment (Q2), predicted value: 2.66 L/h
  2nd Volume of peripheral compartment (V3), predicted value: 8.81 L
  Volume of central compartment (V1), predicted value: 15.2 L
[2]; 3-compartment model, structural model, 30 subjects, 35-600 mg IV
  Clearance of central compartment (CL), predicted value: 32.0 L/h
[2]; [9]
  Interindividual model CL: 43.8%
  Interindividual model Q1: 41.7%
  Interindividual model Q2: 28.1%
  Interindividual model V1: 52.4%
  Interindividual model V2: 20.2%
  Interindividual model V3: 64.1%
[3]; 150, 300, 450 mg IV over 60 minutes, seven times at intervals of 12 hours, of the 24 test subjects, includes one person in placebo group
  test subjects who developed adverse reactions: 7
[3]; about 150 to 450 mg at intervals of 12 hours
  tolerability during repeated administration: good
[3]; repeated dose 150-450 mg, entire clinical test
  significant adverse reactions: no significant adverse reactions occurred
[3]; [10]
  adverse reactions confirmed to be adverse drug reactions, cases: 10
  severity of adverse reactions: mild
[3]; repeated dose 150-450 mg, seven times at 12 h intervals, 24 test subjects, one case in placebo group
  number of adverse reactions: 12
[4]; single IV dose 35-600 mg over 30 minutes, 40 test subjects
  number of adverse reactions: 7
[4]; single IV dose 35-600 mg over 30 minutes, of the 40 test subjects, no adverse reactions in placebo group
  test subjects who developed adverse reactions: 6
[4]; single dose 600 mg, all other adverse reactions mild
  moderate adverse reactions (dizziness), cases: 1
[4]; single dose 35-600 mg, entire clinical test
  significant adverse reactions: No significant adverse reactions occurred
[4]; test dose range 35-600 mg IV
  drug tolerability of a single dose: good
[5]; 900 mg of the test drug, day 90
  results of the K-mRS compared to control drug group: far superior
[5]; [11]
  K-mRS classification at the time point of day 90: K-mRS 0~2: 7(77.78) n(%)
  K-mRS classification at the time point of day 90: K-mRS 3~4: 2(22.22) n(%)
  K-mRS classification at the time point of day 90: K-mRS 5~6: 0 n(%)
[5]; Cohort 1 (900 mg), N = 9
  K-mRS (continuous variable) at the time point of day 90, 1st Quartile: 0.00
  K-mRS (continuous variable) at the time point of day 90, 3rd Quartile: 2.00
  K-mRS (continuous variable) at the time point of day 90, Max: 4.00
  K-mRS (continuous variable) at the time point of day 90, Mean(SD): 1.44(1.42)
  K-mRS (continuous variable) at the time point of day 90, Median: 1.00
  K-mRS (continuous variable) at the time point of day 90, Min: 0.00
[5]; Cohort 1, N = 9
  K-mRS classification at the time point of day 90: K-mRS 0: 3(33.33) n(%)
  K-mRS classification at the time point of day 90: K-mRS 1: 2(22.22) n(%)
  K-mRS classification at the time point of day 90: K-mRS 2: 2(22.22) n(%)
  K-mRS classification at the time point of day 90: K-mRS 3: 1(11.11) n(%)
  K-mRS classification at the time point of day 90: K-mRS 4: 1(11.11) n(%)
  K-mRS classification at the time point of day 90: K-mRS 5: 0 n(%)
  K-mRS classification at the time point of day 90: K-mRS 6: 0 n(%)
[5]; [12]
  K-mRS classification at the time point of day 90: K-mRS 0~2: 1(20.00) n(%)
  K-mRS classification at the time point of day 90: K-mRS 3~4: 3(60.00) n(%)
  K-mRS classification at the time point of day 90: K-mRS 5~6: 1(20.00) n(%)

## CCOc1cc(CN2CCOCC2)cc2[nH]c(=O)c3c(c12)NCCC3 [10-ethoxy-8-(morpholinomethyl)-1,2,3,4-tetrahydrobenzo[h][1,6]naphthyridin-5(6H)-one]
[6]
  reducing cerebral infarction volume: effective in reducing cerebral infarction volume

Source: patent US20220265671A1, “METHOD FOR TREATING STROKE BY USING TRICYCLIC DERIVATIVE” (Jeil Pharmaceutical Co., Ltd., priority 2019, published 2022)
